# Assay results: PMC7083937, “The ribosome-associated complex RAC serves in a relay that directs nascent chains to Ssb” (Nature Communications, 2020)
# What was measured:
# Ssz1 in RAC-ΔN8 = assay: peptide competition with nascent chain crosslinking (XL-Ssz1); format: biochemical, Saccharomyces cerevisiae
# Text: Fig. 3 Nascent chain binding to the Ssz1-SBD is modulated by the N-terminus of Zuo1. a Amino acid sequence of the ScZuo1N. Arrows indicate the positions of truncations in Zuo1-ΔN8, Zuo1-ΔN16, and Zuo1-ΔN49. The color code is as in Fig. 2a. The secondary structure derived from the crystal structure is depicted above. b The Zuo1N LP-motif interferes with the contact of nascent Pgk1-100 with Zuo1 and Ssz1. Ribosome-free extracts obtained from Δssb1Δssb2 (Zuo1, Ssz1), Δssb1Δssb2 RAC-ΔN8 (ΔN8, Ssz1), or Δssb1Δssb2 RAC-ΔN16 (ΔN16, Ssz1) strains (upper panel) were added to RNCs from Δssb1Δssb2Δzuo1Δssz1 translation extract prior to crosslinking. Crosslink products between Zuo1 and nascent Pgk1-100 (XL-Zuo1) and Ssz1 and nascent Pgk1-100 (XL-Ssz1), respectively. c, d Quantification of crosslinking between nascent Pgk1-100 and Zuo1 (c) and Ssz1 (d). Autoradiographs as shown in (b) were employed for the quantification of nascent Pgk1-100 and the crosslink products XL-Zuo1 and XL-Ssz1. Values were normalized as described in Methods. The efficiency of crosslinking is given as a percentage of nascent Pgk1-100 present in the reaction. Experiments were performed in triplicate, with the exception of the XL-Zuo1-ΔN8 (shown in c), which was performed only once. Shown is the mean (bars) and the result of each biologically independent experiment (dots). Error bars indicate the standard deviation of the mean. e Crosslinking of the nascent chain to Ssz1 requires a functional peptide binding groove. Ribosome-free extracts from Δssb1Δssb2 RAC-ΔN8 (Zuo1-ΔN8, Ssz1) or Δssb1Δssb2 RACmut-ΔN8 (Zuo1-ΔN8, Ssz1mut) (upper panel) was added to RNCs generated in Δssb1Δssb2Δzuo1Δssz1 translation extract as described in Fig. 1b. […] RNCs were generated in a Δssb1Δssb2Δzuo1Δssz1 translation extract and ribosome-free extract from Δssb1Δssb2 RAC-ΔN8 (Zuo1-ΔN8, Ssz1) was added. […]
# (§1) Chemical crosslinking of ribosome-bound nascent chains to Ssb, Zuo1, or Ssz1 was analyzed essentially as described. […] Samples were analyzed on Tris-Tricine gels[56] followed by autoradiography. […]
# Zuo1-ΔN8 = assay: peptide competition with nascent chain crosslinking (XL-Zuo1); format: biochemical, Saccharomyces cerevisiae; conditions: RNCs Pgk1-100, RAC-ΔN8, Δssb; peptide added prior to 400 µM BS3 crosslinking, 5 or 50 µM
# Text: Fig. 3 Nascent chain binding to the Ssz1-SBD is modulated by the N-terminus of Zuo1. a Amino acid sequence of the ScZuo1N. Arrows indicate the positions of truncations in Zuo1-ΔN8, Zuo1-ΔN16, and Zuo1-ΔN49. The color code is as in Fig. 2a. The secondary structure derived from the crystal structure is depicted above. b The Zuo1N LP-motif interferes with the contact of nascent Pgk1-100 with Zuo1 and Ssz1. Ribosome-free extracts obtained from Δssb1Δssb2 (Zuo1, Ssz1), Δssb1Δssb2 RAC-ΔN8 (ΔN8, Ssz1), or Δssb1Δssb2 RAC-ΔN16 (ΔN16, Ssz1) strains (upper panel) were added to RNCs from Δssb1Δssb2Δzuo1Δssz1 translation extract prior to crosslinking. Crosslink products between Zuo1 and nascent Pgk1-100 (XL-Zuo1) and Ssz1 and nascent Pgk1-100 (XL-Ssz1), respectively. c, d Quantification of crosslinking between nascent Pgk1-100 and Zuo1 (c) and Ssz1 (d). Autoradiographs as shown in (b) were employed for the quantification of nascent Pgk1-100 and the crosslink products XL-Zuo1 and XL-Ssz1. Values were normalized as described in Methods. The efficiency of crosslinking is given as a percentage of nascent Pgk1-100 present in the reaction. […]
# as §1
# ATP-bound DnaK = conditions: read-out: affinity for ATP-bound DnaK, low-affinity state; cited from earlier work
# ScSsz1-Zuo1NΔLP complex = target: T1, ScSsz1-Zuo1NΔLP complex (Saccharomyces cerevisiae, UniProt P32527+P38788); format: binding; conditions: fluorescence anisotropy; N-terminally fluorescein-labelled peptide, 40 nM mixed 1:1 with protein; pH 7.5, 200 mM KCl; 30 min, room temperature; Ssz1-Zuo1NΔLP
# T1 construct: His6-SUMO (N); made in house
# Experimental: (§2) 1 µM BSA was added to prevent unspecific binding of the fluorescently labelled peptide to the microplate (Greiner Bio-One opaque 384 well plate). Fluorescence anisotropy measurements were performed using the LP-peptide (MFSLPTL) or the NR-peptide (NRLLLTG) labelled at the N terminus with fluorescein (Peptide Specialty Laboratories GmbH, Heidelberg). Two-fold serial dilutions of each protein (ScSsz1-Zuo1N or ScSsz1-Zuo1NΔLP) were mixed in a 1:1 ratio with 40 nM peptides in anisotropy buffer in 384-well opaque plates (Greiner Bio One) and were incubated at room temperature for 30 min. Measurements were performed in triplicate using a plate reader (SpectraMax M5e Multi Mode Microplate reader, Molecular Devices). To determine the binding constant (KD) the data were fitted to a one-site binding equation using Python[57].
# (§3) Ssz1-Zuo1NΔLP Ssz1-Zuo1NΔLP
# (§4) Supplementary Figure 6. Figure S6
# (§5) An al ysi s o f su b strate b in di ng to ScRAC co re vari ants b y fl uo rescen ce an i so trop y.
# (§6) (a) Binding curves of the fluorescently labeled LP-pept ide or (b ) NR-peptide to Ssz1-Zuo1N (circle) or
# (§7) Ssz1-Zuo1NDLP (square) are shown. The mean and standard deviation from three technical replicates
# (§8) is indicated. Source data are provided as a Source Data file.
# ScSsz1-Zuo1N complex = target: T2, ScSsz1-Zuo1N complex (Saccharomyces cerevisiae, UniProt P32527+P38788); assay: fluorescence anisotropy peptide binding; conditions: N-terminally fluorescein-labelled peptide, 40 nM mixed 1:1 with protein, pH 7.5, 200 mM KCl, 30 min, room temperature, Ssz1-Zuo1N
# T2 construct: His6-SUMO (N); made in house
# T2 sequence (P38788 1-538): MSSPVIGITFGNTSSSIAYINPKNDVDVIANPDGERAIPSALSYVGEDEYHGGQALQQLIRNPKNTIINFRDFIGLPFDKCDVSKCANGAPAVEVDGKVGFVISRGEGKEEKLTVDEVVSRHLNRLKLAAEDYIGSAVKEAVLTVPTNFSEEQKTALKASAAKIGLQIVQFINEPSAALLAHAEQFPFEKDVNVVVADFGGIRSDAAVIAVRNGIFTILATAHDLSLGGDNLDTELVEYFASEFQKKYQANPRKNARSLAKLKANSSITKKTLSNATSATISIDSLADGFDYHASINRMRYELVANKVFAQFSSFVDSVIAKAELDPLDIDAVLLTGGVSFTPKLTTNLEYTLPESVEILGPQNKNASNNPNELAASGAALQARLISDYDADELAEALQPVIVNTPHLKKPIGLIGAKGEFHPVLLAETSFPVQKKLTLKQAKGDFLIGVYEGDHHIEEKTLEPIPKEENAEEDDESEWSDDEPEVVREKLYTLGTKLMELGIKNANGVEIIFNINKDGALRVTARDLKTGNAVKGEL
# T2 sequence (P32527 1-50 partner): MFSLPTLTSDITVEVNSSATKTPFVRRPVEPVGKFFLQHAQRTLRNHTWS
# Experimental: as §2, §3, §4, §5, §6, §7, §8
substance,measurement,setting,value
"NRLLLTG [NR-peptide, NRLLLTG peptide, serves as an Hsp70 model substrate]",displacement of nascent chain,"Ssz1 in RAC-ΔN8; 50 µM peptide, ribosome-bound nascent chain",partly displaced
same,effect on nascent chain crosslinking to Ssz1 (XL-Ssz1),"Ssz1 in RAC-ΔN8; RNCs Pgk1-100, RAC-ΔN8, Δssb, peptide added prior to 400 µM BS3 crosslinking, 5 or 50 µM","to a lesser extent also NR-peptide, significantly reduced crosslinking of the nascent chain to Ssz1"
same,displacement compared with LP-peptide,"Ssz1 in RAC-ΔN8; ribosome-bound nascent chain, 50 µM peptide",significantly lower
same,effect on nascent chain crosslinking to Zuo1-ΔN8 (XL-Zuo1),Zuo1-ΔN8,Neither of the peptides added prior to the crosslinking reaction affected nascent chain crosslinking to Zuo1-ΔN8
same,Kd,ATP-bound DnaK,23.8 ± 3.8 µM
same,affinity,ScSsz1-Zuo1NΔLP complex,below the detection limit
same,affinity,ScSsz1-Zuo1N complex,below the detection limit
